Assay results published in patent publication US20100329994A1, “Use of Deuterium Dioxide for Treating Hyperproliferative Skin Diseases” (priority 2006, published 2010).

Key:
[1] = test system: human TE 354.T epithelial cell lines derived from the human basal-cell carcinoma; assay: Proliferation rate (average cell-doubling rate) of human basal-cell carcinoma cell line in culture; assay type: cell-based
Description: (§1) The influence of D2O and H2O on the proliferation rate of carcinoma cells and normal cells was investigated on cell cultures. For this purpose, human TE 354.T epithelial cell lines derived from the human basal-cell carcinoma (American Type Culture Collection (ATCC), Rockville, USA) were used. Normal human epithelial cell lines from the skin of the same individual (TE 353.sk from ATCC) were used as control. The cells were transferred into 96-well cell culture plates (10^4 cells per well) and allowed to grow to subconfluence. The medium used for this purpose was Dulbecco's modified Eagles medium (DMEM) to which 10% heat-deactivated fetal calf serum (LGC Promochem, Wesel, Germany) was added. The medium was changed, for the first time 2 days after introduction of the cells and then every 48 hours. At the subconfluent stage of the cell culture of the two cell lines, 30% D2O, based on the complete medium, was added to the medium. […] From these values, the average cell-doubling rate n was determined from the gradient of a graphical plot of log {cell count} vs. time in accordance with the equation n=3.32 (log Nt−log N0). Here, Nt is the cell count measured after time t, and N0 is the cell count determined at the time when D2O or H2O was added (zero point measurement). The average cell-doubling rate was determined by averaging the results over in each case 6 wells per time point.

[2] = test system: normal human epithelial cell lines from the skin (TE 353.sk); assay: Proliferation rate (average cell-doubling rate) of normal human skin epithelial cell line in culture; conditions: 30% D2O based on the complete medium, counted from 48 h then every 24 h for a week, 6 wells
Description: as §1

[2H]O[2H] [D2O, deuterium dioxide]
reduction in <n> for the carcinoma cells compared with normal cells ([1]; 30% D2O added to medium, versus H2O): disproportionately large reduction
average cell-doubling rate <n> D2O, carcinoma cells ([1]; 30% D2O based on the complete medium, TE 354.T, counted from 48 h then every 24 h for a week, 6 wells): 0.23 ± 0.02
average cell-doubling rate <n> D2O, normal cells [2]: 0.41 ± 0.04
